Experimental findings from PMC3749181, “Rapid Identification of Antifungal Compounds against Exserohilum rostratum Using High Throughput Drug Repurposing Screens” (PLoS ONE, 2013) are described below.

Assay [1] relates to E. rostratum hyphal fragments. Description: hyphal fragment fungicidal ATP content assay (PBS, 1536-well). Conditions: for Emax / IC50: Exserohilum rostratum; for Emax / Hyphae % Max. Resp. / Hyphae % M. Res.: 46 µM Amphotericin B = 100%; for IC50: read-out: Hyphae IC50. The assay is classed as cell-based, Exserohilum rostratum. The protocol: (§1) Conidia and hyphae of E. rostratum were obtained as described by Richard et al., with the following modifications. Briefly, conidia were harvested from Potato Dextrose Agar (PDA) cultured media with 0.05% Tween 80, and the conidial suspension was filtered using a Cell Strainer (100 µm, BD Falcon REF 352340). After centrifugation at 700g for 10 min, the suspension was decanted and conidia were resuspended at 1×10^5 per ml in RPMI and counted in a hemocytometer. Hyphae were harvested from yeast extract peptone dextrose (YPD) culture media with 0.05% Tween 80. Hyphal fragments were sized by vortexing 15 sec twice with 0.4 mm glassbeads, and the hyphae suspension was filtered by cheese cloth twice. […] To normalize concentrations of hyphal fragments for batch to batch consistency, carbohydrate analysis was performed by a phenol-sulfuric acid method as previously described. The final stock concentration of hyphae was adjusted to 1.0 (OD490) per 100 µl.
(§2) The ATPLite assay kit, consisting of luciferase/luciferin and detergent, was used to quantitate cellular ATP levels as a marker for cell viability (Table 1). For assay development, hyphal fragments or conidia in PBS were plated in a seeding density of 3,750, 7,500 and 15,000 cellular particles/well with a final volume of 5 µl/well using the Multidrop-Combi dispenser in white 1536-well plates. Conidia or hyphae fragments were incubated for 24 h at 37°C in a 5% CO2 humidified atmosphere. ATPLite detection reagents were added at 4 µl/well. The assay plates were incubated at room temperature for 15 minutes before reading luminescence intensity on a ViewLux plate reader (Perkin Elmer, Waltham, MA). Conidia suspended in RPMI medium were inoculated at concentrations of 62.5, 125 and 250 conidia/well with a final volume of 5 µl/well in white 1536-well plates. The conidia assay was developed and optimized in the same way as the hyphal assay.
(§3) The LOPAC library (Sigma-Aldrich) has been extensively used for HTS assay validations, [18]. The NIH Chemical Genomics Center Pharmaceutical (NPC) collection was constructed in-house through a combined effort of compound purchasing and custom synthesis and recently expanded to 4096 compounds. […] 2.5 µl/well PBS was dispensed into 1536-well plates using a Multidrop-Combi dispenser. Compound in DMSO solution was transferred in a volume of 23 nl/well using a NX-TR pintool station (WAKO Scientific Solutions, San Diego, CA). This additional PBS step for compound addition was designed to prevent the potential fungal contamination of compound libraries. The hyphal fragments in PBS were then added at 2.5 µl/well for a final seeding density of 15,000 hyphal fragments/well using the Multidrop-Combi dispenser. The final compound concentration was 46 µM in the primary screen. The assay plates were incubated for 24 h at 30°C before the detection of cellular viability with the ATP content assay. Screen of conidia was performed in a similar way except that PBS was replaced with RPMI medium and conidia were plated for a final seeding density of 250 conidia/well.
(§4) The primary screen data and curve fitting were analyzed using software developed internally at the NIH Chemical Genomics Center (NCGC). Total signals for cellular viability (100% cellular viability) were calculated from the wells with DMSO solvent and the complete cell killing (0% cellular viability) was calculated from 46 µM amphotericin B treated wells. […] All values were expressed as the mean +/− SD (n≥3).

The subject of another assay is E. rostratum conidia. Put plainly: conidia growth inhibition ATP content assay (RPMI, 1536-well). It is filed as cell-based, Exserohilum rostratum. The following applies: for IC50 / Emax: Exserohilum rostratum; for IC50: read-out: Conidia IC50. Here is the method: as §1, §2, §3, §4
A further assay has as its system SH-SY5Y cells. Put plainly: SH-SY5Y cytotoxicity counter-screen (ATP content assay). The following applies: for SH-SY5Y % Max. Resp.: Table 2, SH-SY5Y, inact. = no significant activity at 46 µM; for SH-SY5Y % M. Res. / SH-SY5Y IC50: Table S1; for SH-SY5Y % M. Res.: Inact. = no significant activity at 46 µM; for SH-SY5Y IC50: Inact. = no significant activity at the highest compound concentration (46 µM). It is filed as cell-based, Human. The protocol:
Human neuroblastoma SH-SY5Y cell line (Catalog No. CRL-2266) was purchased from ATCC (Manassas, VA). SH-SY5Y cell line was cultured in 175-cm^2 tissue culture flasks (Costar, Cambridge, MA) with 30 ml of growth medium at 37°C in a 5% CO2 humidified atmosphere. Growth medium was made with Dulbecco's Modified Eagle Medium: Nutrient Mixture F-12 with 10% fetal bovine serum (FBS). Growth medium was replaced every other day and cells were passed at 75% confluence.
as §2
Two small known compound libraries including the LOPAC (1280 compounds) and approved drugs (4096 compounds) were screened in parallel using the above optimized assays for hyphae and conidia in 1536-well plates (Fig. 4). […] A mammalian SH-SY5Y cell line was used in parallel as a counter-screen with the same ATP content assay kit to assess the specificity of these compounds for E. rostratum.
Background: Counterscreens check selectivity or assay interference.

[2] abbreviates: Table 2, inact. = no significant activity in the primary screen, read-out: Hyphae % Max. Resp.
[3] abbreviates: Table 2, 24 h, inact. = no significant activity in the primary screen.
[4] abbreviates: 24 h, Table 2, 24 h, inact. = no significant activity at the highest compound concentration (46 µM).
Setting [5] is: Table 2, 46 µM Amphotericin B = 100%, inact. = no significant activity at 46 µM, read-out: Conidia % Max. Resp.
Setting [6] is: Table 2, inact. = no significant activity in the primary screen.
Setting [7] is: Table S1, Inact. = no significant activity in the primary screen.
The mark [8] stands for this setting: Table S1, 46 µM Amphotericin B = 100%, Inact. = no significant activity at 46 µM.
The mark [9] stands for this setting: Table S1, Inact. = no significant activity at the highest compound concentration (46 µM).

Like-named read-outs stand apart in the source and are kept apart here.

For the molecule `Oc1c(Br)cc(Br)c2cccnc12` [Broxyquinoline], the Emax in assay [1] (setting [2]) is 96%; in the assay on E. rostratum conidia (setting [5]), 98%. The values for the IC50 (in assay [1] (setting [3]); with E. rostratum conidia (setting [4])) were 4510 nM and 1600 nM, respectively. For the same molecule, the “SH-SY5Y % Max. Resp.” value with SH-SY5Y cells (46 µM Amphotericin B = 100%) was 100%; in the assay on SH-SY5Y cells, 58.9%.

For the molecule `CNc1ccc2oc(C[C@H]3O[C@@]4(CC[C@H]3C)O[C@H]([C@H](C)C(=O)c3ccc[nH]3)[C@H](C)C[C@H]4C)nc2c1C(=O)O` [Calcimycin], in assay [1] (setting [6]), the “Hyphae % Max. Resp.” value is “inact”. In addition, the “Hyphae IC50” value in assay [1] (setting [3]) was “inact”. Besides, the IC50 (usually the concentration needed to halve the response being measured) with E. rostratum conidia (24 h) is 735 nM. The Emax with E. rostratum conidia (setting [5]) is 51%. Further, the “SH-SY5Y % Max. Resp.” value came out at 94% with SH-SY5Y cells (46 µM Amphotericin B = 100%) and 3.95% in the assay on SH-SY5Y cells.

Regarding `O=C1C2CC=CCC2C(=O)N1SC(Cl)(Cl)Cl` (stereo not drawn) [Captan], in assay [1] (setting [2]), the Emax worked out at 82%. Also, the half-inhibitory concentration (IC50) in assay [1] (setting [3]) came out at 1170 nM. The “Conidia % Max. Resp.” value in the assay with E. rostratum conidia (Table 2, 46 µM Amphotericin B = 100%, inact. = no significant activity at 46 µM) is “inact”. Further, the “Conidia IC50” value with E. rostratum conidia (Table 2, 24 h, inact. = no significant activity at the highest compound concentration (46 µM)) was “inact”. Further, the results for the “SH-SY5Y % Max. Resp.” value in the assay on SH-SY5Y cells (46 µM Amphotericin B = 100%) and in the assay on SH-SY5Y cells were 100% and 18.6%, respectively.

For the molecule `COCc1c(C(C)C)nc(C(C)C)c(/C=C/[C@@H](O)C[C@@H](O)CC(=O)O)c1-c1ccc(F)cc1` [Cerivastatin sodium], the results for the Emax (in assay [1] (setting [2]); in the assay with E. rostratum conidia (setting [5])) were 79% and 101%, respectively. Further, the half-inhibitory concentration (IC50) came to 1610 nM in assay [1] (setting [3]) and 472 nM with E. rostratum conidia (setting [4]). Also, the “SH-SY5Y % Max. Resp.” value in the assay on SH-SY5Y cells (46 µM Amphotericin B = 100%) and with SH-SY5Y cells was “inact” in each case.

Turning to `Oc1c(I)cc(Cl)c2cccnc12` [Clioquinol], the “Hyphae % Max. Resp.” value in assay [1] (setting [6]) is reported as “inact”. Besides, in assay [1] (setting [3]), the “Hyphae IC50” value is recorded as “inact”. For the same molecule, the half-maximal inhibitory concentration (IC50) in the assay on E. rostratum conidia (setting [4]) was determined as 975 nM. In the assay on E. rostratum conidia (setting [5]), the Emax was 103%. Besides, the “SH-SY5Y % Max. Resp.” value with SH-SY5Y cells (46 µM Amphotericin B = 100%) was determined as 60%; in the assay with SH-SY5Y cells, 37.2%.

`CCCCCCCCCC(=O)NO` [Decanohydroxamic acid]: in assay [1] (setting [7]), the “Hyphae % M. Res.” value is listed as “Inact” and the “Hyphae IC50” value is listed as “Inact”. Also, the “Conidia % M. Res.” value with E. rostratum conidia (setting [8]) is recorded as “Inact”. In the assay with E. rostratum conidia (setting [9]), the “Conidia IC50” value is “Inact”. Moreover, the “SH-SY5Y % M. Res.” value in the assay with SH-SY5Y cells (46 µM Amphotericin B = 100%) is listed as “Inact”. In addition, the “SH-SY5Y IC50” value in the assay with SH-SY5Y cells is “Inact”.

For `Cc1cc(N)c2ccccc2[n+]1CCCCCCCCCC[n+]1c(C)cc(N)c2ccccc21` [Dequalinium dichloride], the Emax in assay [1] (setting [2]) was 93%; in the assay on E. rostratum conidia (setting [5]) it was 109%. In addition, the IC50 in assay [1] (setting [3]) worked out at 673 nM; with E. rostratum conidia (setting [4]), 2540 nM. For the same molecule, the “SH-SY5Y % Max. Resp.” value in the assay with SH-SY5Y cells (46 µM Amphotericin B = 100%) and with SH-SY5Y cells was “inact” each time.

Consider `N[C@@H](COP(=O)(O)O)C(=O)O` [Dexfosfoserine], for which, in assay [1] (setting [7]), the “Hyphae % M. Res.” value is recorded as “Inact” and the “Hyphae IC50” value is recorded as “Inact”. For the same molecule, in the assay with E. rostratum conidia (setting [8]), the “Conidia % M. Res.” value is on record as “Inact”. For the same molecule, in the assay with E. rostratum conidia (setting [9]), the “Conidia IC50” value is “Inact”. Also, the “SH-SY5Y % M. Res.” value in the assay with SH-SY5Y cells (46 µM Amphotericin B = 100%) was “Inact”. Besides, the “SH-SY5Y IC50” value with SH-SY5Y cells was “Inact”.

Take `Clc1ccc(COC(Cn2ccnc2)c2ccc(Cl)cc2Cl)cc1` (stereo not drawn) [Econazole nitrate]: the Emax in assay [1] (Table S1, Inact. = no significant activity in the primary screen, read-out: Hyphae % M. Res.) came to 77%; with E. rostratum conidia (Table S1, 46 µM Amphotericin B = 100%, Inact. = no significant activity at 46 µM, read-out: Conidia % M. Res.) it was 64%. Moreover, the “SH-SY5Y % M. Res.” value with SH-SY5Y cells (46 µM Amphotericin B = 100%) is on record as “Inact”.
